The values that follow come from patent publication US7166616B2, “Substituted alkanoic acids” (Aventis Pharma Limited, priority 2000, dated 2007).

The structures appear in SMILES notation.

As to `Cc1ccccc1Nc1nc2ccc(CC(=O)Nc3ccc(C4(CC(=O)O)CCCC4)cc3)cc2o1` [Example 1, (1-{4-[2-(2-o-Tolylamino-benzoxazol-6-yl)-acetylamino]-phenyl}-cyclopentyl)-acetic acid], the melting point was in the range of 123 to 126 °C.
In the case of `COc1cc(CC(=O)Nc2ccc(C3(CC(=O)O)CCCC3)cc2)ccc1NC(=O)Nc1ccccc1C` [Example 2, [1-{4-[2-[3-Methoxy-4-[3-o-tolyl-ureido]-phenyl]-acetylamino]-phenyl}-cyclopentyl]-acetic acid], the melting point is 223 to 226 °C.

In general, melting point refers to the temperature of the solid-liquid transition.
